Source: US7060673B2, “Fusion peptide of human parathyroid hormone derived peptide and tat peptide, preparation thereof, and skin slimming cosmetic composition comprising the same” (LG Household and Health Care Ltd., priority 2001, dated 2006)

Assays:
[1] = tested on: 3T3-L1 cell differentiated into adipocyte; experiment: Lipolysis effects test (glycerol secretion by differentiated adipocytes); conditions: 24 hours, absorbency at 540 nm
[2] = tested on: healthy adult women with local obesity or cellulite inside of a thigh; conditions: O/W emulsion coated on one leg for one month, control emulsion on the other leg; 5 women
Experimental: In order to examine slimming effects, clinical tests were conducted on 5 healthy adult women of ages 18˜46 with local obesity or cellulite inside of a thigh (Method of testing primary irritant substances 38(187): pp1500–1541).
The fusion peptide prepared in Example 1 was prepared in the form of an O/W emulsion and used in the test. A control (O/W emulsion without sample) was coated on one leg, and an O/W emulsion comprising the compound of Chemical Formula 1 of the present invention was coated on the other leg, for one month, and then the thickness of the lipid layer was quantified.

For `CC(C)NCC(O)c1ccc(O)c(O)c1` (stereo not shown) [Isoproterenol, isoproterenol, reference compound], the “Lipolysis increase rate (%)” value ([1]; concentration 10^−5 M) was 12.5%, the “Lipolysis increase rate (%)” value ([1]; concentration 10^−6 M) was 39.0% and the “Lipolysis increase rate (%)” value ([1]; concentration 10^−7 M) was 34.5%. The “Lipolysis increase rate (%)” value ([1]; concentration 10^−8 M) was 17.3%.
With KKKKKKKKKGKH the lipid layer decrease [2] was 18%, the “Lipolysis increase rate (%)” value ([1]; concentration 10^−5 M) was 43.4% and the “Lipolysis increase rate (%)” value ([1]; concentration 10^−5 M, listed as compound represented by the Chemical Formula 1) was 43%. The “Lipolysis increase rate (%)” value ([1]; concentration 10^−6 M) was 10.3%, the “Lipolysis increase rate (%)” value ([1]; concentration 10^−7 M) was 17.4% and the “Lipolysis increase rate (%)” value ([1]; concentration 10^−8 M) was 8.6%.
